Drawing on patent publication US20110195900A1, “PEPTIDIC PTH RECEPTOR AGONISTS” (FERRING B.V., priority 2008, published 2011), this text covers EC50 and hPTHR-2/hPTHR-1 for six molecules.

Where two headings read alike, the source gives them in different places. Non-standard residues stand in square brackets, D forms with d. Residues, ends and D or L forms follow the SMILES beside them. 1Nal = N[C@@H](Cc1cccc2ccccc12)C(=O)O; β3hI = CC[C@H](C)[C@H](N)CC(=O)O; β3hK = NCCCC[C@H](N)CC(=O)O; hSer = N[C@@H](CCO)C(=O)O; Nle = CCCC[C@H](N)C(=O)O; Aib = CC(C)(N)C(=O)O; βAla = NCCC(=O)O

The target in one test is T1, human PTH-1 receptor (Homo sapiens, UniProt Q03431).
T1 construct: expressed in transfected cells; host or cells: HEK-293
T1 sequence (Q03431 27-593): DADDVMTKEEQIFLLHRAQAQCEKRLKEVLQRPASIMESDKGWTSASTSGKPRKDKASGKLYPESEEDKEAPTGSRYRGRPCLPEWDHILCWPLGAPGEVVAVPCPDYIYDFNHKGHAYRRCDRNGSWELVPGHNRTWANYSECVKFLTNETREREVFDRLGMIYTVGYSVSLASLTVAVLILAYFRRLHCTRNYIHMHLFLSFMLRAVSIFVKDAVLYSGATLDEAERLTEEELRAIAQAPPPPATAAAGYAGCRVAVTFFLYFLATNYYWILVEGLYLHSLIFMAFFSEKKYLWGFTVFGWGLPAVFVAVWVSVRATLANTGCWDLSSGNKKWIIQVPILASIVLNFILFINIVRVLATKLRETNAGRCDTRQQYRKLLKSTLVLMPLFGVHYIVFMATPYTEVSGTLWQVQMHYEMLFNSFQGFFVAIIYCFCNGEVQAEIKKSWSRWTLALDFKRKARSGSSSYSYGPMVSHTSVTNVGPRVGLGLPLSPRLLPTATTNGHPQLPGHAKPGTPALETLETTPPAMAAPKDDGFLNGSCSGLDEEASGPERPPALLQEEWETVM
Kind of test: Reporter gene assay (CRE-luciferase) for agonist activity in transiently transfected HEK-293 cells. It counts as cell-based. As to conditions: for hPTHR-2/hPTHR-1: ratio of EC50 values, selectivity for hPTH-1 receptor over hPTH-2 receptor. In short, it runs like this: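 HEK-293 cells transiently transfected with SV40-driven human PTH-1 receptor and CRE-luciferase reporter, exposed to serial compound dilutions for 4-5 h, then lysed for luciferase readout; efficacy and EC50 by non-linear regression, PTH (1-34) as internal control, n≥3. Selectivity measured in analogous human PTH-2 receptor luciferase reporter assays.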

For another test, the target named is T2, human PTH-2 receptor (Homo sapiens, UniProt P49190).
T2 construct: expressed in transfected cells
T2 sequence (P49190 25-550): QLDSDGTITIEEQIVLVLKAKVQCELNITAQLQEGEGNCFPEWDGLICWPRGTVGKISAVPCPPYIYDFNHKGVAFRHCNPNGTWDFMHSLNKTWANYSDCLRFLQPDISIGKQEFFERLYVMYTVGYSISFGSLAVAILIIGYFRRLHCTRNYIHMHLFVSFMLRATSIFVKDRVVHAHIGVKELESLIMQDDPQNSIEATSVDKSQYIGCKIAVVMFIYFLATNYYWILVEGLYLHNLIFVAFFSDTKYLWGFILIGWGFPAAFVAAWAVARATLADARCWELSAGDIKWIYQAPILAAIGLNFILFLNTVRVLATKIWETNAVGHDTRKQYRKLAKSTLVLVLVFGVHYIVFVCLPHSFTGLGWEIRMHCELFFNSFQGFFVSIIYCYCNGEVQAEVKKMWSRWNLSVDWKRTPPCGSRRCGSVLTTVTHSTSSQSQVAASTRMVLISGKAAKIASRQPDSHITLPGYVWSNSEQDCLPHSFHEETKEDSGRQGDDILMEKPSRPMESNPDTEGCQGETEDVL
Kind of test: Luciferase-based transcriptional reporter gene assay for selectivity. It counts as cell-based. The protocol:
Agonist activity of compounds on the human PTH-1 receptor was determined in a reporter gene assay by transiently transfecting HEK-293 cells with plasmids encoding human PTH-1 receptor under control of the SV40 promoter and a luciferase reporter gene under control of cAMP responsive elements (CRE). See Himmler et al, J. Recept. Res. 13 (1993) 79-94, for further guidance on this assay. Transfected cells were exposed to serial dilutions of compounds for 4-5 hours followed by lysis of cells, determination of luciferase activity, and determination of compound efficacies and EC50 values through non-linear regression.
PTH (1-34) was used as an internal control in each experiment and compounds were tested in at least three independent experiments. To determine selectivity, compounds were tested in luciferase-based transcriptional reporter gene assays expressing the human PTH-2 receptor.

As to `CCCC[C@H](NC(=O)[C@H](CC(C)C)NC(=O)[C@H](CCC(N)=O)NC(=O)[C@@H](NC(=O)[C@H](CCC(=O)O)NC(=O)[C@H](CO)NC(=O)[C@@H](NC(=O)[C@@H](N)CO)C(C)C)[C@@H](C)CC)C(=O)N[C@@H](Cc1c[nH]cn1)C(=O)N[C@@H](CC(N)=O)C(=O)N[C@@H](CC(C)C)C(=O)NCC(=O)N[C@@H](CCCCN)C(=O)N[C@@H](Cc1c[nH]cn1)C(=O)N[C@@H](CC(C)C)C(=O)N[C@@H](CC(N)=O)C(=O)N[C@@H](CO)C(=O)N[C@H](CC(=O)N[C@@H](CCC(=O)O)C(=O)N[C@@H](CCCNC(=N)N)C(=O)N[C@H](C(=O)N[C@@H](CCC(=O)O)C(=O)N[C@@H](Cc1cccc2ccccc12)C(=O)N[C@@H](CC(C)C)C(=O)N[C@@H](CCCNC(=N)N)C(=O)N[C@@H](CCCCN)C(=O)N[C@@H](CC(C)C)C(=O)N[C@@H](CC(C)C)C(=O)N[C@@H](CCC(N)=O)C(=O)N[C@@H](Cc1c[nH]cn1)C(=O)N[C@H](C(=O)N[C@@H](Cc1c[nH]cn1)C(=O)N[C@@H](CC(N)=O)C(=O)N[C@@H](Cc1ccccc1)C(N)=O)C(C)C)C(C)C)[C@@H](C)CC` [SEQ ID NO: 25, [Nle^8, β-hIle^18,1-Nal^23, Leu^27, His^30] hPTH (1-34)-NH2] (H-SVSEIQL[Nle]HNLGKHLNS[β3hI]ERVE[1Nal]LRKLLQHVHNF-NH2), the results for the concentration giving a half-maximal response (EC50) on human PTH-1 receptor and on human PTH-2 receptor were 0.18 nM and 13 nM, respectively. On human PTH-1 receptor (Table 3), the hPTHR-2/hPTHR-1 came to 72.
For `CC[C@H](C)[C@H](NC(=O)[C@H](CCC(=O)O)NC(=O)[C@H](CO)NC(=O)[C@@H](NC(=O)[C@@H](N)CO)C(C)C)C(=O)N[C@@H](CCC(N)=O)C(=O)N[C@@H](CC(C)C)C(=O)N[C@@H](CCOC)C(=O)N[C@@H](Cc1c[nH]cn1)C(=O)N[C@@H](CC(N)=O)C(=O)N[C@@H](CC(C)C)C(=O)NCC(=O)N[C@@H](CCCCN)C(=O)N[C@@H](Cc1c[nH]cn1)C(=O)N[C@@H](CC(C)C)C(=O)N[C@@H](CC(N)=O)C(=O)NCCC(=O)N[C@@H](CCOC)C(=O)N[C@@H](CCC(=O)O)C(=O)N[C@@H](CCCNC(=N)N)C(=O)N[C@H](C(=O)N[C@@H](CCC(=O)O)C(=O)N[C@@H](Cc1cccc2ccccc12)C(=O)N[C@@H](CC(C)C)C(=O)N[C@@H](CCCNC(=N)N)C(=O)N[C@@H](CCCCN)C(=O)N[C@@H](CC(C)C)C(=O)N[C@@H](CC(C)C)C(=O)N[C@@H](CCC(N)=O)C(=O)N[C@@H](CC(=O)O)C(=O)N[C@H](C(=O)N[C@@H](Cc1c[nH]cn1)C(=O)N[C@@H](CC(N)=O)C(=O)N[C@@H](Cc1ccccc1)C(N)=O)C(C)C)C(C)C` [SEQ ID NO: 17, [hSer(OMe)^8,18, β-Ala^17,1-Nal^23, Leu^27] hPTH(1-34)-NH2] (H-SVSEIQL[hSer](Me)HNLGKHLN[βAla][hSer](Me)ERVE[1Nal]LRKLLQDVHNF-NH2), the hPTHR-2/hPTHR-1 on human PTH-1 receptor (Table 3) is more than 300. Besides, at human PTH-2 receptor, the EC50 is more than 270 nM.
In the case of `CCCC[C@H](NC(=O)[C@H](CC(C)C)NC(=O)[C@H](CCC(N)=O)NC(=O)[C@@H](NC(=O)[C@H](CCC(=O)O)NC(=O)[C@H](CO)NC(=O)[C@@H](NC(=O)C(C)(C)N)C(C)C)[C@@H](C)CC)C(=O)N[C@@H](Cc1c[nH]cn1)C(=O)N[C@@H](CO)C(=O)N[C@@H](CC(C)C)C(=O)NCC(=O)N[C@@H](CCCCN)C(=O)N[C@@H](Cc1c[nH]cn1)C(=O)N[C@@H](CC(C)C)C(=O)N[C@@H](CCCCN)C(=O)N[C@@H](CO)C(=O)N[C@H](CC(=O)N[C@@H](CCC(=O)O)C(=O)N[C@@H](CCCNC(=N)N)C(=O)N[C@H](C(=O)N[C@@H](CCC(=O)O)C(=O)N[C@@H](Cc1cccc2ccccc12)C(=O)N[C@@H](CC(C)C)C(=O)N[C@@H](CCCNC(=N)N)C(=O)N[C@@H](CCCCN)C(=O)N[C@@H](CC(C)C)C(=O)N[C@@H](CC(C)C)C(=O)N[C@@H](CCC(N)=O)C(=O)N[C@@H](CCCNC(=N)N)C(=O)N[C@H](C(=O)N[C@@H](Cc1c[nH]cn1)C(=O)N[C@@H](CCC(=O)O)C(=O)N[C@@H](Cc1ccccc1)C(N)=O)C(C)C)C(C)C)[C@@H](C)CC` [SEQ ID NO: 38, [Aib^1, Nle^8, Ser^10, Lys^16, β-hIle^18,1-Nal^23, Leu^27, Arg^30, Glu^33] hPTH (1-34)-NH2] (H-[Aib]VSEIQL[Nle]HSLGKHLKS[β3hI]ERVE[1Nal]LRKLLQRVHEF-NH2), the concentration giving a half-maximal response (EC50) on human PTH-1 receptor amounted to 0.09 nM; at human PTH-2 receptor, 6 nM. For the same molecule, the hPTHR-2/hPTHR-1 on human PTH-1 receptor (Table 3) was 61.
On to `CCCC[C@H](NC(=O)[C@H](CC(C)C)NC(=O)[C@H](CCC(N)=O)NC(=O)[C@@H](NC(=O)[C@H](CCC(=O)O)NC(=O)[C@H](CO)NC(=O)[C@@H](NC(=O)C(C)(C)N)C(C)C)[C@@H](C)CC)C(=O)N[C@@H](Cc1c[nH]cn1)C(=O)N[C@@H](CC(N)=O)C(=O)N[C@@H](CC(C)C)C(=O)NCC(=O)N[C@@H](CCCCN)C(=O)N[C@@H](Cc1c[nH]cn1)C(=O)N[C@@H](CC(C)C)C(=O)N[C@@H](CC(N)=O)C(=O)N[C@@H](CO)C(=O)N[C@@H](CCOC)C(=O)N[C@@H](CCCCN)CC(=O)N[C@@H](CCCNC(=N)N)C(=O)N[C@H](C(=O)N[C@@H](CCC(=O)O)C(=O)N[C@@H](Cc1cccc2ccccc12)C(=O)N[C@@H](CC(C)C)C(=O)N[C@@H](CCCNC(=N)N)C(=O)N[C@@H](CCCCN)C(=O)N[C@@H](CC(C)C)C(=O)N[C@@H](CC(C)C)C(=O)N[C@@H](CCC(N)=O)C(=O)N[C@@H](CC(=O)O)C(=O)N[C@H](C(=O)N[C@@H](Cc1c[nH]cn1)C(=O)N[C@@H](CC(N)=O)C(=O)N[C@@H](Cc1ccccc1)C(N)=O)C(C)C)C(C)C` [SEQ ID NO: 47, [Aib^1, Nle^8, hSer(OMe)^18, β-hLys^19,1-Nal^23, Leu^27] hPTH (1-$$4)-NH2] (H-[Aib]VSEIQL[Nle]HNLGKHLNS[hSer](Me)[β3hK]RVE[1Nal]LRKLLQDVHNF-NH2), for which the EC50 on human PTH-1 receptor (Table 3, HEK-293 cells, CRE-luciferase, 4-5 hours exposure, read-out: hPTHR-1 EC50) turned out to be 0.05 nM; at human PTH-2 receptor (Table 3, luciferase reporter gene assay, read-out: hPTHR-2 EC50), 3 nM. Also, at human PTH-1 receptor (Table 3), the hPTHR-2/hPTHR-1 was 51.
With `CCCC[C@H](NC(=O)[C@H](CC(C)C)NC(=O)[C@H](CCC(N)=O)NC(=O)[C@@H](NC(=O)[C@H](CCC(=O)O)NC(=O)[C@H](CO)NC(=O)[C@@H](NC(=O)[C@@H](N)CO)C(C)C)[C@@H](C)CC)C(=O)N[C@@H](Cc1c[nH]cn1)C(=O)N[C@@H](CO)C(=O)N[C@@H](CC(C)C)C(=O)NCC(=O)N[C@@H](CCCCN)C(=O)N[C@@H](Cc1c[nH]cn1)C(=O)N[C@@H](CC(C)C)C(=O)N[C@@H](CCCCN)C(=O)N[C@@H](CO)C(=O)N[C@H](CC(=O)N[C@@H](CCC(=O)O)C(=O)N[C@@H](CCCNC(=N)N)C(=O)N[C@H](C(=O)N[C@@H](CCC(=O)O)C(=O)N[C@@H](Cc1cccc2ccccc12)C(=O)N[C@@H](CC(C)C)C(=O)N[C@@H](CCCNC(=N)N)C(=O)N[C@@H](CCCCN)C(=O)N[C@@H](CC(C)C)C(=O)N[C@@H](CC(C)C)C(=O)N[C@@H](CCC(N)=O)C(=O)N[C@@H](CCCNC(=N)N)C(=O)N[C@H](C(=O)N[C@@H](Cc1c[nH]cn1)C(=O)N[C@@H](CCC(=O)O)C(=O)N[C@@H](CCC(=O)O)C(N)=O)C(C)C)C(C)C)[C@@H](C)CC` [SEQ ID NO: 44, [Nle^8, Ser^10, Lys^16, β-hIle^18,1-Nal^23, Leu^27, Arg^30, Glu^33, Glu^34] hPTH (1-34)-NH2] (H-SVSEIQL[Nle]HSLGKHLKS[β3hI]ERVE[1Nal]LRKLLQRVHEE-NH2), the EC50 on human PTH-1 receptor came out at 0.04 nM; on human PTH-2 receptor it was 6 nM. Moreover, the hPTHR-2/hPTHR-1 on human PTH-1 receptor (Table 3) was found to be 154.
Regarding `CCCC[C@H](NC(=O)[C@H](CC(C)C)NC(=O)[C@H](CCC(N)=O)NC(=O)[C@@H](NC(=O)[C@H](CCC(=O)O)NC(=O)[C@H](CO)NC(=O)[C@@H](NC(=O)[C@@H](N)CO)C(C)C)[C@@H](C)CC)C(=O)N[C@@H](Cc1c[nH]cn1)C(=O)N[C@@H](CC(N)=O)C(=O)N[C@@H](CC(C)C)C(=O)NC(C)(C)C(=O)N[C@@H](CCCCN)C(=O)N[C@@H](Cc1c[nH]cn1)C(=O)N[C@@H](CC(C)C)C(=O)N[C@@H](CC(N)=O)C(=O)N[C@@H](CO)C(=O)N[C@H](CC(=O)N[C@@H](CCC(=O)O)C(=O)N[C@@H](CCCNC(=N)N)C(=O)N[C@H](C(=O)N[C@@H](CCC(=O)O)C(=O)N[C@@H](Cc1cccc2ccccc12)C(=O)N[C@@H](CC(C)C)C(=O)N[C@@H](CCCNC(=N)N)C(=O)N[C@@H](CCCCN)C(=O)N[C@@H](CC(C)C)C(=O)N[C@@H](CC(C)C)C(=O)N[C@@H](CCC(N)=O)C(=O)N[C@@H](CC(=O)O)C(=O)N[C@H](C(=O)N[C@@H](Cc1c[nH]cn1)C(=O)N[C@@H](CC(N)=O)C(=O)N[C@@H](Cc1ccccc1)C(N)=O)C(C)C)C(C)C)[C@@H](C)CC` [SEQ ID NO: 32, [Nle^8, Aib^12, β-hIle^18,1-Nal^23, Leu^27] hPTH (1-34)-NH2] (H-SVSEIQL[Nle]HNL[Aib]KHLNS[β3hI]ERVE[1Nal]LRKLLQDVHNF-NH2), the hPTHR-2/hPTHR-1 on human PTH-1 receptor (Table 3) was found to be 55. In addition, the EC50 at human PTH-2 receptor turned out to be 13 nM.
